Test results from US7709497B2, “Pyrazolo[3,4-b]pyridine compound, and its use as a PDE4 inhibitor” (Glaxo Group Limited, priority 2004, dated 2010).

Tests used:
[1] = target: T1, PDE4B (human recombinant) (Homo sapiens, UniProt Q07343); assay: PDE4B inhibition, IMAP Fluorescence Polarisation (FP) assay; assay type: biochemical; settings: n = 2; accuracy ±about 0.5 log unit; read-out: PDE4B pIC50 (FP assay, mean value) (converted)
T1 construct: made in house; host or cells: Saccharomyces cerevisiae strain GL62 (PDE-deficient yeast)
T1 sequence (Q07343 1-564 isoform Q07343-2): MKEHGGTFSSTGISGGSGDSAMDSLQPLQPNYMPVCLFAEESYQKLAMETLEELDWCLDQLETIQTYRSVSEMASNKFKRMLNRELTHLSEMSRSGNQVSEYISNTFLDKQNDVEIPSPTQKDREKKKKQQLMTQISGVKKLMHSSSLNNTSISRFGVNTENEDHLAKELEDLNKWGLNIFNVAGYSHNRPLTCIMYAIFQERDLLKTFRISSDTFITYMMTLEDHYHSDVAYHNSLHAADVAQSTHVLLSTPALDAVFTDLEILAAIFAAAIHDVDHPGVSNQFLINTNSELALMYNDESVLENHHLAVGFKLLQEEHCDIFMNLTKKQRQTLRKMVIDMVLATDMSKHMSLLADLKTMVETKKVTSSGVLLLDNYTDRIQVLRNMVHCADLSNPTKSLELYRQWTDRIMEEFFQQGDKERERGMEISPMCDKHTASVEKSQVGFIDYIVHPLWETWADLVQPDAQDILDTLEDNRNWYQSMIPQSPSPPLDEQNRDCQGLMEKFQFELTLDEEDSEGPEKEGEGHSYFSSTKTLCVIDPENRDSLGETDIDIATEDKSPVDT
Description: Human recombinant PDE4B, in particular the 2B splice variant thereof (HSPDE4B2B), is disclosed in WO 94/20079 and also M. M. McLaughlin et al., “A low Km, rolipram-sensitive, cAMP-specific phosphodiesterase from human brain: cloning and expression of cDNA, biochemical characterisation of recombinant protein, and tissue distribution of mRNA”, J. Biol. Chem., 1993, 268, 6470-6476. […]
The ability of compounds to inhibit catalytic activity at PDE4B (human recombinant) or PDE4D (human recombinant) can optionally be determined by IMAP Fluorescence Polarisation (FP) assay (IMAP Explorer kit, available from Molecular Devices Corporation, Sunnydale, Calif., USA; Molecular Devices code: R8062) in a 384-well format.
The IMAP FP assay is able to measure PDE activity in an homogenous, non-radioactive assay format. […] Binding of Fl-AMP product to the beads (coated with the immobilised trivalent cations) slows the rotation of the bound Fl-AMP and leads to an increase in the fluorescence polarisation ratio of parallel to perpendicular light. […]
Biological Data obtained for Example 1 and/or Example 1A (i.e. the compound of formula (I)) (PDE4B and PDE4D inhibitory activities, usually as an average of more than one reading) are as follows, based on current measurements only, and using the above or similar or analogous assay methods. […]

[2] = system: TNF-α (TNF-alpha) production in Human PBMC (Peripheral Blood Mononuclear Cell); assay: Inhibition of TNF-α production in Human PBMC assay; assay type: cell-based; settings: LPS-stimulated, n=9, read-out: Inhibition of TNF-α production in PBMCs pIC50 (converted)
Procedure: Test compounds are prepared as a ca. 10 mM stock solution in DMSO and a dilution series prepared in DMSO with 8 successive 3-fold dilutions, either directly from the 10 mM stock solution or from a more dilute solution in DMSO. The compound is added to assay plates using a Biomek Fx liquid handling robot.
PBMC cells (peripheral blood mononuclear cells) are prepared from heparinised human blood from normal volunteers by centrifugation on histopaque at ca. 1000 g for ca. 30 minutes. The cells are collected from the interface, washed by centrifugation (ca. 1300 g, ca. 10 minutes) and resuspended in assay buffer (RPMI 1640 containing 10% foetal calf serum, 1% L-glutamine and 1% penicillin/streptomycin) at 1×10^6 cells/ml. Ca. 50 μl (ca. 50 ul) cells are added to microtitre wells containing ca. 0.5 or ca/1.0 μl (ul) of an appropriately diluted compound solution. Ca. […] The supernatant is removed and the concentrations of TNF are determined by electrochemiluminescence assay using the IGEN technology or by ELISA (see below).
Ca. […] 50 μl (ul) of streptavidin/biotinylated anti-TNF-α antibody mix, ca. 25 μl ruthenium tagged anti-TNF-α monoclonal and ca. 100 μl PBS containing 0.1% bovine serum albumin are added to each well and the plates are sealed and shaken for ca. 2 hours before being read on an IGEN instrument. […]

[3] = Systemic exposure after oral administration to rat(s); assay type: in vivo; settings: about 1 mg/kg oral, free base, 10% DMSO and 90% PEG200/water (70:30), preliminary tests
Description: Although the compound of formula (I) or salt thereof may be administered orally, oral administration is not presently thought to be a preferred route of administration.

- IC50 [1]: 0.676 nM
- systemic exposure after oral administration [3]: low systemic exposure
Compound: CCn1ncc2c(NC3CCN(C(N)=O)CC3)c(C(=O)NCc3ccc(C)c(C)c3)cnc21 [compound of formula (I), 4-{[1-(aminocarbonyl)-4-piperidinyl]amino}-N-[(3,4-dimethylphenyl)methyl]-1-ethyl-1H-pyrazolo[3,4-b]pyridine-5-carboxamide]
- IC50 [2]: 1.82 nM
